# Patent US6503490B2, “Deodorant products” (Unilever Home & Personal Care USA, division of Conopco, Inc., priority 2000, dated 2003)
# Columns and labels:
# [1] = system: Staphylococcus epidermidis; assay: Anti-microbial performance test: growth inhibition of axillary isolate of S. epidermidis in semi-synthetic medium (OD 600 nm); assay type: cell-based; conditions: concentration of 3×10^−6 mol.dm^−3 or less
# Experimental: An axillary isolate of Staphylococcus epidermidis was grown overnight in 100 ml of tryptone soy broth (TSB, Oxoid Ltd). 10 ml of this culture was taken and subjected to centrifugation. The separated cells were re-suspended in 10 ml of phosphate buffered saline and the centrifugation procedure repeated. The washed cells were re-suspended in 10 ml of phosphate buffered saline to give the inoculum. 100 μl of the inoculum was added to 100 ml of semi-synthetic medium (SSM) containing (NH4)2SO4 (0.066 g),MgSO4.7H2O (0.012 g), KCl (0.1 g), KH2PO4 (0.27 g), Na2HPO4 (1.43 g), thiamin (0.1 mg), biotin (0.05 mg), Peptone P (0.05 g), and glucose (2.0 mmole) which had been previously sterilised by autoclaving at 121° C. for 20 minutes. The pH of the SSM was adjusted to 6.7 with HCl after sterilisation, prior to addition of the inoculum. This control medium was utilised in all of the in vitro inhibition studies. The chelator-containing test media were prepared in a similar manner, the chelator being introduced at a concentration of 3×10^−6 mol.dm^−3 before the pH adjustment with HCl.
# 100 μl of the S. epidermidis inoculum was introduced into the control medium and into test media containing the chelators indicated in Table 2. The cultures were inoculated at 37° C. (with agitation at 200 rpm) for 16 hours, and the optical density of the cultures measured at 600 nm to determine the extent of bacterial growth. By comparison of the optical density of the culture in the presence of chelating agent, to that of the control, the percentage inhibition of growth was established. (Optical density measurements were made on 1 in 4 dilutions of the cultures with 0.9% (w/v) saline, using 1 cm path length cuvettes, on a Pharmacia Biotech Ultrospec 200 Spectrophotometer.)
# [2] = molecular target: T1, human diferric transferrin (Homo sapiens, UniProt P02787); assay: Transferrin dissociation promotion test (FerroZine, absorption at 562 nm); assay type: biochemical; conditions: after 24 hours, 10 mmol.l^−1 test material, 37° C., pH 6.5, control 0.111
# T1 construct: purchased Sigma Chemicals
# T1 sequence (P02787 20-698): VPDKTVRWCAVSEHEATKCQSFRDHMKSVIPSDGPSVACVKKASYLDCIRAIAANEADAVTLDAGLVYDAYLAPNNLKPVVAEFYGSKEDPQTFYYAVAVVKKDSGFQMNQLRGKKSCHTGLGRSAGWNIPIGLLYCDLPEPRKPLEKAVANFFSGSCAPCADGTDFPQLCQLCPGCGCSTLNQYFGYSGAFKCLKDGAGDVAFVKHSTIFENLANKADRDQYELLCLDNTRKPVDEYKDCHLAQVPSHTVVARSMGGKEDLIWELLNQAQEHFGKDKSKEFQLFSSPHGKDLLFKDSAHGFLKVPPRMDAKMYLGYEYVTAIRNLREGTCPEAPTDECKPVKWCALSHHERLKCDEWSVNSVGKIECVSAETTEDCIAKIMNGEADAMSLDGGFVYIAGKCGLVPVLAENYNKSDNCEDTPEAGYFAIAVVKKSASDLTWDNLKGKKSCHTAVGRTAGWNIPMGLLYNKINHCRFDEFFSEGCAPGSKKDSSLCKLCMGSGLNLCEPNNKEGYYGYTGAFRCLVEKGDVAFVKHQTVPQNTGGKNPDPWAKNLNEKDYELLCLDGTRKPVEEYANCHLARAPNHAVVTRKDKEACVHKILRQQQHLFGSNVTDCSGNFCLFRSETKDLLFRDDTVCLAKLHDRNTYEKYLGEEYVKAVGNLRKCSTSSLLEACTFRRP
# Experimental: 2.7 g.l^−1 human diferric transferrin (ex Sigma Chemicals) is incubated at 37° C. in 50 mM HEPES (N-[2-hydroxyethyl]piperazine-N-[2-ethanesulfonic acid]) buffer adjusted to pH 6.5 with sodium hydroxide, together with 0.115 g.l^−1 FerroZine (ex Sigma Chemicals; 3-(2-pyridyl)-5,6-bis(4-phenylsulfonic acid)-1,2,4-triazine, monosodium salt) and 10 mmol.l^−1 of the test material, if water soluble, or 2.5 g.l^−1 of the test material, added as a finely ground powder, if water insoluble.
# After 24 hours, the extent of transferrin dissociation is estimated by eye or spectrophotometrically. Transferrin dissociation promoters lead a purple colouration; in particular, they lead to an absorption at 562 nm of 0.15 or greater. This purple colouration is the result of the production of iron(II) tri(FerroZine) complex. The molar concentration of this complex is equal to the molar concentration of iron dissociated from the transferrin.
# 2.7 g.l^−1 human diferric transferrin (ex Sigma Chemicals) was incubated at 37° C. in 50 mM HEPES (N-[2-hydroxyethyl]piperazine-N′-[2-ethanesulfonic acid]) buffer adjusted to pH 6.5 with sodium hydroxide, together with 0.115 g.l^−1 FerroZine (ex Sigma Chemicals; 3-(2-pyridyl)-5,6-bis(4-phenylsulfonic acid)-1,2,4-triazine, monosodium salt) and 10 mmol.l^−1 of the test material.
# After 24 hours, the extent of transferrin dissociation was estimated spectrophotometrically by measuring absorption at 562 nm (vide supra). The data (see Table 5) illustrate the enhanced transferrin dissociation occurring in the presence of the indicated test materials.
Absorption [2],SMILES,Significant inhibition of growth of S. epidermidis (at least 30%) [1]
–,"O=C(O)CN(CC(=O)O)[C@@H]1CCCC[C@H]1N(CC(=O)O)CC(=O)O (relative stereo) [CDTA, trans-1,2-diaminocyclohexane-N,N,N′,N′-tetraacetic acid]",are not
–,"O=C(O)CN(CCN(CCN(CC(=O)O)CC(=O)O)CC(=O)O)CCN(CC(=O)O)CC(=O)O [TTHA, triethylenetetraaminehexaacetic acid]",capable of achieving significant inhibition
–,"O=C(O)CN(CCN(CC(=O)O)CC(=O)O)CC(=O)O [EDTA, ethylenediaminetetraacetic acid]",are not
–,"O=C(O)CN(CCN(CC(=O)O)CC(=O)O)CCN(CC(=O)O)CC(=O)O [DTPA, diethylenetriaminepentaacetic acid]",capable of achieving significant inhibition
0.425,"O=S(=O)(O)c1cc(O)c(O)c(S(=O)(=O)O)c1 [Iron, 4,5-dihydroxy-1,3-benzenedisulfonic acid]",–
0.305,O=C(O)c1ccccc1O [Salicylic acid],–

SMILES,Absorption [2],Significant inhibition of growth of S. epidermidis (at least 30%) [1]
O=C(O)c1ccc(O)c(O)c1 [Protocatechuic acid],0.391,–
